Laboratory results taken from patent publication EP0454429B1, “Use of 15-dehydroxy-16-oxoprostaglandin derivatives in the treatment of allergic diseases” (R-TECH UENO, LTD., priority 1990, dated 1991).

Columns and labels:
[1] = test system: contraction by leukotriene D4; assay: Inhibition of leukotriene D4-induced contraction of isolated guinea pig trachea (Test Example 3); type: cell-based; conditions: guinea pig trachea contracted with 1x10^-8M leukotriene D4; for IC20: concentration for 20% inhibition; for IC50: concentration for 50% inhibition
Experimental: (§1) A guinea pig was sacrificed by knocking at the occipital region and then bleeding from the femoral artery. The trachea was removed, incised in the longitudinal direction at the opposite side of the smooth muscle and sectioned into sections of about 1 to 1.5 cm along the cartilage. Seven or eight sections were linked by a silk thread in chains. The sample was stretched by 1.0 g of tension in 15 ml of Tyrode's solution at 37°C under flow of the mixed gas of 95% O2 and 5% CO2. After resting for 60 to 90 minutes for stabilization, the sample was contracted with 1x10^-8M leukotriene D4 and when the construction reached the constant value, the test compounds were accumulately added every 6 minutes, and the change in tension was recorded on a recorder (T-626DS, Nippon Densi Kagaku, Japan) through an isometric transducer (1T-1, LABOX, Fukukensha, Japan).
Rate of inhibition by the test compounds of the contraction by leukotriene D4 was expressed in percent, and IC20 and IC50 values were calculated as the concentration of the test compounds for 20% and 50% […], respectively.

[2] = test system: increase in the airway resistance by histamine; assay: Inhibition of histamine-induced increase in airway resistance, test compound i.v. (Test Example 2); type: in vivo; conditions: one minute before histamine (3 µg/kg), anesthetized guinea pig
Experimental: A guinea pig was intraperitoneally anesthetized with 1.0-1.2 g/kg urethane (Katayama Kagaku, Japan). The test animal was cannulated through the common carotid […] and the trachea, and then pancuronium bromide was intravenously administered at 0.3 mg/kg to stop the spontaneous respiration of the test animal. The animal was artificially respired using a respirater for a small animal (SN-480-7, Shinano Seisakusho, Japan) and bronchospasm transducer (7020, Ugo Basile). The overflowing air at 6-9 ml(air)/time, 60 times/minute and loading pressure of 10 cm H2O was recorded on a recorder (056-1001, Hitachi Seisakusho, Japan) through the bronchospasm transducer. Histamine (3 µg/kg) was administered several times at 30 minutes intervals, and when the increase in the airway resistance by histamine was established, the test compounds were intravenously administered one minute before the administration of histamine (3 µg/kg) to induce airway constriction. The difference of airway resistance before and after the administration of histamine was taken as 100% and activity of test compounds was shown in terms of percent inhibition of the increase due to histamine.

[3] = test system: contraction by histamine; assay: Inhibition of histamine-induced contraction of isolated guinea pig trachea (Test Example 1); type: cell-based; conditions: guinea pig trachea contracted with 5.4x10^-4M histamine, cumulative addition every 6 minutes; for IC20: concentration for 20% inhibition; for IC50: concentration for 50% inhibition
Experimental: as §1, with “5.4x10^-4M histamine” for “1x10^-8M leukotriene D4”, “Denshi” for “Densi”
Rate of inhibition by the test compounds of the contraction by histamine was expressed in percent, and IC20 and IC50 values were calculated as the concentration of the test compounds for 20% and 50% […], respectively.

[4] = test system: platelet activating factor (PAF); assay: Inhibition of PAF-induced increase in airway resistance, test compound i.v. (Test Example 4); type: in vivo, guinea pig; conditions: dose 10µg/kg i.v. one minute before PAF (50 ng/kg i.v.), n=2
Experimental: A guinea pig was intraperitoneally anesthetized with 1.2 g/kg urethane (Katayama Kagaku, Japan). The test animal was cannulated through the common carotid […] and the trachea, and then pancuronium bromide was intravenously administered at 0.3 mg/kg to stop the spontaneous respiration of the test animal. The animal was artificially respired using a respirater for a small animal (SN-480-7, Shinano Seisakusho, Japan) and bronchospasm transducer (7020, Ugo Basile). The overflowing air at 7-10 ml(air)/time, 60 times/minute and loading pressure of 10 cm H2O was recorded on a recorder (056-1001, Hitachi Seisakusho, Japan) through the bronchospasm transducer. When the base line was stabilized, platelet activating factor (PAF) (50 ng/kg) was intravenously administered. The increase in the airway resistance was determined taking the value at the complete occlusion of trachea as the maximum contraction (100%). The test compounds were intravenously administered one minute before the administration of PAF. The difference of airway resistance before and after the administration of 50 ng/kg PAF was taken as 100% and activity of test compound was shown in terms of percent inhibition of the increase due to PAF.

[5] = test system: PCA reaction; assay: Passive cutaneous anaphylaxis (PCA) reaction in sensitized rats (Test Example 7); type: in vivo, Male Crj Wistar rats; conditions: Dose 10 µg/kg intravenously, n=16
Experimental: Male Crj Wistar rats (7 weeks old) were passively sensitized by injecting 50µl of diluted rat anti-EA (egg albumin) antiserum at the dorsal skin.
After 48 hours, 1 ml of a mixture consisting of equal amount of 1% EA (egg albumin) as the antigen in physiological saline and 1% Evans Blue in physiological saline was injected in the caudal vein to elicit the PCA reaction. After 30 minutes, the animals were killed by deep anesthetization and dorsal skin was ablated. The major and minor axes of reacted part, i.e. pigment-leaking site were measured and the average value of them was taken as the diameter, from which the area was calculated.
Then said site was punched and amount of the pigment was measured by the following method.
The punched site was dipped in 1ml of 1N aqueous potassium hydroxide and allowed to stand overnight at 37°C. Then 9ml of a mixed solution of 0.6N H3PO4: acetone (5:13) was added and the mixture was centrifuged. The supernatant was assayed for absorption at 620 nm using an absorption spectrophotometer. The amount of the pigment was determined by calibration curve which was obtained using the known amounts of the pigment.
The test compound was dissolved in the physiological saline and intravenously administered. The control animals intravenously received the physiological saline (5ml/kg) alone.

[6] = test system: conjunctive; assay: Histamine-induced conjunctival inflammation and dye leakage, ophthalmic administration (Test Example 6); type: in vivo, Female Wistar rats; design: Weight of Conjunctive (Mean±S.D.): dose or concentration left out as unconfirmed; conditions: for Weight of Conjunctive (Mean±S.D.): 3 minutes before Evans Blue and subconjunctival histamine, 30 minutes, control 41.5±2.0; for Dye (µg/part): dye extracted from conjunctive, absorption at 625 nm, control 8.26±0.52
Experimental: Female Wistar rats (weight: 90g) were used as the test animals. The animals received the test compounds and, 3 minutes after, 0.5ml of 0.5% Ebans Blue/physiological saline was administered through the caudal vein. Then, immediately after, 0.05ml of 0.1% histamine hydrochloride/physiological saline was injected subconjunctivally at an upper eyelid. After 30 minutes, the animals were sacrificed by vertebral cervial dislocation and the scalp was peeled away towards the eyelid. Part of skin and conjunctive showing inflammation was cut off and weighed. Then, said conjunctive was minced and extracted overnight with 4ml […] at 40°C with shaking. The dye in the conjunctive was assayed by measuring absorption of the extract at 625 nm. […] Control animals received the same amount of the physiological saline.

SMILES: CCCC(F)(F)C(=O)CCC[C@H]1[C@H](O)CC(=O)[C@@H]1C/C=C\CCCC(=O)O [compound 2]
- IC20 ([1]; Cavia porcellus): 300 nM
- IC50 ([1]; Cavia porcellus): 1000 nM
- Inhibition (%) ([2]; dose 10 µg/kg): 78%
- IC20 ([3]; Cavia porcellus, 0.1 h): 300 nM
- IC50 ([3]; Cavia porcellus, 0.1 h): 2000 nM

SMILES: CCCC(F)(F)C(=O)CCCC1C(=O)CC(O)C1C/C=C\CCCC(=O)OC (stereo not drawn) [Test Compound 8, 13,14-dihydro-15-dehydroxy-16-oxo-17,17-difluoro-PGD2 methyl ester]
- Increase in Resistance (%,mean) ([4]; complete occlusion of trachea = 100%, control 74.5): 11.5%
- Inhibition (%) [4]: 84.6%
- IC20 [1]: 40 nM
- IC50 [1]: 120 nM
- Amount(µg/site) ([5]; amount of pigment in punched site, absorption at 620 nm, control 104.9±45.4): 38.0±15.9 µg/site
- Area(mm^2) ([5]; area of pigment-leaking site, 30 minutes after antigen, control 56.9±19.4): 33.7±7.5 mm^2
- Inhibition (%) ([2]; dose 5 µg/kg): 93%
- Weight of Conjunctive (Mean±S.D.) [6]: 32.7 ± 1.8 mg
- IC20 [3]: 100 nM
- IC50 [3]: 350 nM

SMILES: CCCC(F)(F)C(=O)CCC[C@H]1C=CC(=O)[C@@H]1C/C=C\CCCC(=O)OC [compound 9]
- Weight of Conjunctive (Mean±S.D.) [6]: 38.9 ± 1.8 mg
- Dye (µg/part) [6]: 7.49±0.67 µg/part

SMILES: CCCC(F)(F)C(=O)CCC[C@H]1C(=O)C[C@H](O)[C@@H]1C/C=C\CCCC(=O)OC [compound 8]
- Weight of Conjunctive (Mean±S.D.) [6]: 38.5 ± 2.0 mg
- Dye (µg/part) [6]: 7.69±0.71 µg/part

SMILES: CCCC(F)(F)C(=O)CCC[C@H]1[C@H](O)CC(=O)[C@@H]1C/C=C\CCCC(=O)OC(C)C [compound 3]
- IC20 ([1]; Cavia porcellus): 180 nM
- IC50 ([1]; Cavia porcellus): 600 nM
- IC20 ([3]; Cavia porcellus, 0.1 h): 500 nM
- IC50 ([3]; Cavia porcellus, 0.1 h): 2000 nM

SMILES: CCCC(F)(F)C(=O)CCC[C@H]1[C@H](C)CC(=O)[C@@H]1C/C=C\CCCC(=O)OC [compound 4]
- IC20 ([1]; Cavia porcellus): 7000 nM
- IC50 ([1]; Cavia porcellus): 25000 nM
- IC20 ([3]; Cavia porcellus, 0.1 h): 10000 nM

SMILES: CCCC(F)(F)C(=O)CCC[C@@H]1[C@@H](C/C=C\CCCC(=O)OC)[C@@H](O)C[C@H]1O [compound 7]
- IC20 ([1]; Cavia porcellus): 4000 nM
- IC50 ([1]; Cavia porcellus): 20000 nM
- IC20 ([3]; Cavia porcellus, 0.1 h): 17000 nM

SMILES: CCCC(F)(F)C(=O)CCC[C@H]1[C@H](O)CC(=O)[C@@H]1C/C=C\CCCC(=O)OC [compound 1]
- IC20 ([1]; Cavia porcellus): 160 nM
- IC50 ([1]; Cavia porcellus): 500 nM
- Inhibition (%) ([2]; dose 10 µg/kg): 92%
- Weight of Conjunctive (Mean±S.D.) [6]: 36.3 ± 2.1 mg
- Dye (µg/part) [6]: 7.13±0.65 µg/part
- IC20 ([3]; Cavia porcellus, 0.1 h): 300 nM
- IC50 ([3]; Cavia porcellus, 0.1 h): 1200 nM
